Source: patent publication US20100016401A1, “3-AZA-BICYCLO[3.1.0]HEXANE DERIVATIVES” (Actelion Phamaceuticals Ltd., priority 2006, published 2010)

Legend:
human orexin-1 receptor = target: T1, human orexin-1 receptor (Homo sapiens, UniProt O43613); assay: Intracellular calcium measurements (FLIPR), orexin receptor antagonistic activity, OX1; type: cell-based; conditions: CHO cells expressing human orexin-1 receptor, 10 nM orexin-A as agonist
T1 construct: expressed in transfected cells; host or cells: CHO (Chinese hamster ovary) cells, grown under G418 selection
T1 sequence (O43613 1-425): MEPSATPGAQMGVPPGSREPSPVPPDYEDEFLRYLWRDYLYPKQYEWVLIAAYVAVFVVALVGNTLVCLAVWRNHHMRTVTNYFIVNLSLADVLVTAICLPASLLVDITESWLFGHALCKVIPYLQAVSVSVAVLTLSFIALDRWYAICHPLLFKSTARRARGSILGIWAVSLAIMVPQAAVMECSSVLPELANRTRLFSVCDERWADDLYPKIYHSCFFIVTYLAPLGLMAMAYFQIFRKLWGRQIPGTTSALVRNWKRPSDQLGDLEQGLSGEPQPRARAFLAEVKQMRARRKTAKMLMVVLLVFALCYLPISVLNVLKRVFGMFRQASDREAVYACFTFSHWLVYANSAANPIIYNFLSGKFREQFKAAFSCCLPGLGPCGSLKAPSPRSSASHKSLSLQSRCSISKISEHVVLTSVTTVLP
Protocol: (§1) The orexin receptor antagonistic activity of the compounds of formula (I) is determined in accordance with the following experimental method.
(§2) Intracellular Calcium Measurements:
(§3) Chinese hamster ovary (CHO) cells expressing the human orexin-1 receptor and the human orexin-2 receptor, respectively, are grown in culture medium (Ham F-12 with L-Glutamine) containing 300 μg/ml G418, 100 U/ml penicillin, 100 μg/ml streptomycin and 10% inactivated fetal calf serum (FCS). The cells are seeded at 80,000 cells/well into 96-well black clear bottom sterile plates (Costar) which have been precoated with 1% gelatine in Hanks' Balanced Salt Solution (HBSS). All reagents are from Gibco BRL. The seeded plates are incubated overnight at 37° C. in 5% CO2.
(§4) Human orexin-A as an agonist is prepared as 1 mM stock solution in MeOH: water (1:1), diluted in HBSS containing 0.1% bovine serum albumin (BSA) and 2 mM HEPES for use in the assay at a final concentration of 10 nM.
(§5) Antagonists are prepared as 10 mM stock solution in DMSO, then diluted in 96-well plates, first in DMSO, then in HBSS containing 0.1% bovine serum albumin (BSA) and 2 mM HEPES.
(§6) On the day of the assay, 100 μl of loading medium (HBSS containing 1% FCS, 2 mM HEPES, 5 mM probenecid (Sigma) and 3 μM of the fluorescent calcium indicator fluo-3 AM (1 mM stock solution in DMSO with 10% pluronic acid) (Molecular Probes) is added to each well.
(§7) The 96-well plates are incubated for 60 min at 37° C. in 5% CO2. The loading solution is then aspirated and cells are washed 3 times with 200 μl HBSS containing 2.5 mM probenecid, 0.1% BSA, 2 mM HEPES. 100 μl of that same buffer is left in each well.
(§8) Within the Fluorescent Imaging Plate Reader (FLIPR, Molecular Devices), antagonists are added to the plate in a volume of 50 μl, incubated for 20 min and finally 100 μl of agonist is added. Fluorescence is measured for each well at 1 second intervals, and the height of each fluorescence peak is compared to the height of the fluorescence peak induced by 10 nM orexin-A with buffer in place of antagonist.

human orexin-2 receptor = target: T2, human orexin-2 receptor (Homo sapiens, UniProt O43614); assay: Intracellular calcium measurements (FLIPR), orexin receptor antagonistic activity, OX2; type: cell-based; conditions: CHO cells expressing human orexin-2 receptor, 10 nM orexin-A as agonist
T2 construct: expressed in transfected cells; host or cells: CHO (Chinese hamster ovary) cells, grown under G418 selection
T2 sequence (O43614 1-444): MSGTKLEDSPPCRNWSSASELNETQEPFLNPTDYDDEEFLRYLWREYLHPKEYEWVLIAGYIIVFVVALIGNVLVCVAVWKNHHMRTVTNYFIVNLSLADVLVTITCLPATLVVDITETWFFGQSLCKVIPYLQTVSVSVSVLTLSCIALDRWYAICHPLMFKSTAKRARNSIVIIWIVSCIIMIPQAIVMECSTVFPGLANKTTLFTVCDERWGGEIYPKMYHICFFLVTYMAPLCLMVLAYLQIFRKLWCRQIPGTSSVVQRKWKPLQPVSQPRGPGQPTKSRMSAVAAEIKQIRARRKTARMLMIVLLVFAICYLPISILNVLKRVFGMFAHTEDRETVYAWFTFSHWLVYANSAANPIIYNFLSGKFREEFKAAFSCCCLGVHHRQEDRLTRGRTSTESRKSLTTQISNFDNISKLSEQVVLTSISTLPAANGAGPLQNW
Protocol: as §1, §2, §3, §4, §5, §6, §7, §8

| IC50 (human orexin-1 receptor) [µM] | IC50 (human orexin-2 receptor) [µM] | Compound |
| --- | --- | --- |
| 0.093 | 0.124 | Cc1cccc(-c2sc(C)nc2C(=O)N2C[C@H]3C[C@H]3[C@H]2CNC(=O)c2cn(C)c3ccccc23)c1 (relative stereo) [Example 114, 1-Methyl-1H-indole-3-carboxylic acid [(1R*,2S*,5S*)-3-(2-methyl-5-m-tolyl-thiazole-4-carbonyl)-3-aza-bicyclo[3.1.0]hex-2-ylmethyl]-amide] |
| 0.043 | 0.033 | Cc1cccc(-c2sc(C)nc2C(=O)N2C[C@H]3C[C@H]3[C@H]2CNC(=O)c2cccc3c2C=CCO3)c1 (relative stereo) [Example 178, 2H-Chromene-5-carboxylic acid [(1R*,2S*,5S*)-3-(2-methyl-5-m-tolyl-thiazole-4-carbonyl)-3-aza-bicyclo[3.1.0]hex-2-ylmethyl]-amide] |
| 0.09 | 0.154 | Cc1cccc(-c2sc(C)nc2C(=O)N2C[C@H]3C[C@H]3[C@H]2CNC(=O)c2cccc3c2NC(=O)CO3)c1 (relative stereo) [Example 181, 3-Oxo-3,4-dihydro-2H-benzo[1,4]oxazine-5-carboxylic acid [(1R*,2S*,5S*)-3-(2-methyl-5-m-tolyl-thiazole-4-carbonyl)-3-aza-bicyclo[3.1.0]hex-2-ylmethyl]-amide] |
| 0.24 | 0.051 | O=C(NC[C@@H]1[C@@H]2C[C@@H]2CN1C(=O)c1cccc2c1-c1ccccc1C2)c1cccc2occc12 (relative stereo) [Example 31, benzofuran-4-carboxylic acid [(1R*,2S*,5S*)-3-(9H-fluorene-4-carbonyl)-3-aza-bicyclo[3.1.0]hex-2-ylmethyl]-amide] |
| 0.037 | 0.017 | Cc1nc(C(=O)N2C[C@H]3C[C@H]3[C@H]2CNC(=O)c2cnc3sccn23)c(-c2cccc(F)c2)s1 (relative stereo) [Example 214, Imidazo[2,1-b]thiazole-5-carboxylic acid {(1R*,2S*,5S*)-3-[5-(3-fluoro-phenyl)-2-methyl-thiazole-4-carbonyl]-3-aza-bicyclo[3.1.0]hex-2-ylmethyl}-amide] |
| 0.237 | 0.076 | Cc1cccc(-c2sc(C)nc2C(=O)N2C[C@H]3C[C@H]3[C@H]2CNC(=O)c2cccc3c2OCCN3C)c1 (relative stereo) [Example 179, 4-Methyl-3,4-dihydro-2H-benzo[1,4]oxazine-8-carboxylic acid [(1R*,2S*,5S*)-3-(2-methyl-5-m-tolyl-thiazole-4-carbonyl)-3-aza-bicyclo[3.1.0]hex-2-ylmethyl]-amide] |
| 0.033 | 0.015 | Cc1cccc(-c2sc(N)nc2C(=O)N2C[C@H]3C[C@H]3[C@H]2CNC(=O)c2scc3c2OCCO3)c1 (relative stereo) [Example 284, 2,3-Dihydro-thieno[3,4-b][1,4]dioxine-5-carboxylic acid [(1R*,2S*,5S*)-3-(2-amino-5-m-tolyl-thiazole-4-carbonyl)-3-aza-bicyclo[3.1.0]hex-2-ylmethyl]-amide] |
| 0.099 | 0.016 | Cc1cccc(-c2sc(C)nc2C(=O)N2C[C@H]3C[C@H]3[C@H]2CNC(=O)c2sc(Br)nc2C)c1 (relative stereo) [Example 74, 2-bromo-4-methyl-thiazole-5-carboxylic acid [(1R*,2S*,5S*)-3-(2-methyl-5-m-tolyl-thiazole-4-carbonyl)-3-aza-bicyclo[3.1.0]hex-2-ylmethyl]-amide] |
| 0.373 | 0.061 | Cc1ccc(C(=O)N2C[C@H]3C[C@H]3[C@H]2CNC(=O)c2cccc3c2OCCO3)c(C#CC2CC2)c1 (racemic) [Example 379, 2,3-Dihydro-benzo[1,4]dioxine-5-carboxylic acid [(1R*,2S*,5S*)-3-(2-cyclopropylethynyl-4-methyl-benzoyl)-3-aza-bicyclo[3.1.0]hex-2-ylmethyl]-amide] |
| 0.237 | 0.05 | O=C(NC[C@@H]1[C@@H]2C[C@@H]2CN1C(=O)c1ccccc1-c1ccc(Cl)cc1)c1cccc2occc12 (relative stereo) [Example 42, benzofuran-4-carboxylic acid [(1R*,2S*,5S*)-3-(4′-chloro-biphenyl-2-carbonyl)-3-aza-bicyclo[3.1.0]hex-2-ylmethyl]-amide] |
| 0.194 | 0.158 | Cc1csc(-c2c(C)cccc2C(=O)N2C[C@H]3C[C@H]3[C@H]2CNC(=O)c2cccc3c2OCCO3)c1 [Compound 376] |
